Results from patent US12006289B2, “Potassium channel inhibitors” (Saniona A/S, priority 2019, dated 2024).

Target: erythrocyte KCa3.1 channels (Homo sapiens (Human), UniProt O15554)
Test: Erythrocyte KCa3.1 assay
Assay type: cell-based
Conditions: human erythrocytes, A23187-activated, 37° C.; read-out: RBC K (in vitro) Human IC50
Procedure: Human blood was drawn from healthy human volunteers in a standard heparinized blood sampling vial (Vacutainer, Li/heparin, BD Bioscience, Plymouth, UK). The erythrocytes were packed by centrifugation, and the plasma and buffy coat were removed by aspiration. Erythrocytes were washed three times in the experimental salt solution and then stored at 0° C. until use. Blood samples from NMRI mice or from Wistar rats were treated similarly. The methodological principle is outlined in Macey et al. (1978) and further described in Strøbæk et al. (2013). Activation of the erythrocyte KCa3.1 channels were obtained by addition of the Ca^2+ ionophore A23187, which causes synchronized hyperpolarization, which is reported as a CCCP-mediated shift in the unbuffered extracellular pH of the erythrocyte suspension. Standard procedure: 3 mL unbuffered experimental salt solution (in mM: 2 KCl, 154 NaCl, 0.05 CaCl2) was heated to 37° C. with stirring. Packed erythrocytes were added (50 μL, final cytocrit 1.5%), and the extracellular pH (pHo) followed with a glass/calomel (pHG200-8/REF200, Radiometer, Denmark) electrode pair. CCCP (3 μL, final concentration 20 μM) was added followed by varying concentrations of test compounds (DMSO concentration constant). After pH stabilization at ˜7.2, A23187 (3 μL, final concentration 0.33 μM) was added to initiate the experiment. After the peak hyperpolarization was attained, the intracellular pH (pHi constant during the experiment) was found by haemolysing the erythrocytes via addition of 100 μL of Triton-X100.
The erythrocyte membrane potential, Vm, was calculated according to: Vm=−61.5 mV×(pHo−pHi) and the fractional remaining Ca^2+-activated K^+-conductance at the concentration C of blocker, fGK(C), was calculated from
[formula] where the K^+ equilibrium potential EK=−107 mV, the Cl^− equilibrium potential ECl=−12 mV and the Vm(0) and Vm(C) are the peak hyperpolarizations in the control and in the presence of a concentration of C of blocker respectively.
IC50 values for compounds were calculated from a plot of fGK(C) versus C by a fit to the Hill equation, using a custom program written in the IGOR-Pro software (WaveMetrics, Lake Oswego, OR, USA). All IC50-values are reported in μM.

SMILES	IC50
COC(=O)N1CC(N(C(=O)OC)C2(c3ccc(F)c(C(F)(F)F)c3)CC2)C1 [[4], Methyl 3-((1-(4-fluoro-3-(trifluoromethyl)phenyl)cyclopropyl) (methoxycarbonyl)amino)azetidine-1-carboxylate]	71 nM
COC(=O)N(C1CNC1)C1(c2ccc(F)c(C(F)(F)F)c2)CC1 [[5], Methyl azetidin-3-yl(1-(4-fluoro-3-(trifluoromethyl)phenyl)cyclopropyl)carbamate]	310 nM
Fc1ccc(C2(N(CC3CC3)C3CNC3)CC2)cc1C(F)(F)F [[6], N-(cyclopropylmethyl)-N-(1-(4-fluoro-3-(trifluoromethyl)phenyl)cyclopropyl)azetidin-3-amine]	190 nM
COC(=O)N(CCN)C1(c2ccc(F)c(C(F)(F)F)c2)CC1 [[7], Methyl (2-aminoethyl)(1-(4-fluoro-3-(trifluoromethyl)phenyl)cyclopropyl)carbamate]	480 nM
CC(C)(N)CN(C(=O)C1CC1)C1(c2ccc(F)c(C(F)(F)F)c2)CC1 [[9], N-(2-amino-2-methylpropyl)-N-(1-(4-fluoro-3-(trifluoromethyl)phenyl)cyclopropyl)cyclopropanecarboxamide]	350 nM
CC(C)(N)CN(C1CC1)C1(c2cccc(C(F)(F)F)c2)CC1 [[10], N1-cyclopropyl-2-methyl-N1-(1-(3-(trifluoromethyl)phenyl)cyclopropyl)propane-1,2-diamine]	24 nM
COC(=O)N(CC(C)(C)N)C1(c2cc(Cl)cc(Cl)c2)CC1 [[11], Methyl (2-amino-2-methylpropyl)(1-(3,5-dichlorophenyl)cyclopropyl)carbamate]	300 nM
COC(=O)N(CC(C)(C)N)C1(c2cccc(Br)c2)CC1 [[12], Methyl (2-amino-2-methylpropyl)(1-(3-bromophenyl)cyclopropyl)carbamate]	400 nM
COC(=O)N(CC(C)(C)N)C1(c2cccc(Cl)c2)CC1 [[13], Methyl (2-amino-2-methylpropyl)(1-(3-chlorophenyl)cyclopropyl)carbamate]	440 nM
CC(C)(O)CN(CC1CCN1)C1(c2ccc(F)c(C(F)(F)F)c2)CC1 (centres unmarked) [[14], 1-((azetidin-2-ylmethyl)(1-(4-fluoro-3-(trifluoromethyl)phenyl)cyclopropyl)amino)-2-methyl propan-2-ol]	250 nM
COC(=O)N(CC(C)(C)N)C1(c2cccc(C(F)(F)F)c2)CC1 [[15], Methyl (2-amino-2-methylpropyl)(1-(3-(trifluoromethyl)phenyl)cyclopropyl)carbamate]	140 nM
CC(C)(N)CN(C1CCC1)C1(c2cccc(C(F)(F)F)c2)CC1 [[18], N1-cyclobutyl-2-methyl-N1-(1-(3-(trifluoromethyl)phenyl)cyclopropyl)propane-1,2-diamine]	18 nM
CCOC(=O)N(CC(C)(C)N)C1(c2ccc(F)c(C(F)(F)F)c2)CC1 [[19], Ethyl (2-amino-2-methylpropyl)(1-(4-fluoro-3-(trifluoromethyl)phenyl)cyclopropyl)carbamate]	47 nM
COC(=O)N(CC(C)(C)N)C1(c2ccc(F)c(OC(F)(F)F)c2)CC1 [[20], Methyl (2-amino-2-methylpropyl)(1-(4-fluoro-3-(trifluoromethoxy)phenyl)cyclopropyl)carbamate]	92 nM
CC(C)(N)CN(C1(c2ccc(F)c(C(F)(F)F)c2)CC1)S(C)(=O)=O [[21], N-(2-amino-2-methylpropyl)-N-(1-(4-fluoro-3-(trifluoromethyl)phenyl)cyclopropyl)methanesulfonamide]	75 nM
COC(=O)N(C[C@H]1CCCN1)C1(c2ccc(F)c(C(F)(F)F)c2)CC1 [[22], Methyl (R)-(1-(4-fluoro-3-(trifluoromethyl)phenyl)cyclopropyl)(pyrrolidin-2-ylmethyl)carbamate]	210 nM
COC(=O)N(C[C@@H]1CCCN1)C1(c2ccc(F)c(C(F)(F)F)c2)CC1 [[23], Methyl (S)-(1-(4-fluoro-3-(trifluoromethyl)phenyl)cyclopropyl)(pyrrolidin-2-ylmethyl)carbamate]	120 nM
